# In PubChem BioAssay (NCI):
#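 Briefly, cells in 96-well plates were exposed to five compound concentrations for 48 h, and endpoints were estimated by linear interpolation. GI50 is the concentration that inhibits growth by half. Definition used: TGI = concentration required for complete inhibition of growth.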
# Assays:
# Experiment in all cases: NCI tumour cell line growth inhibition, 48 h
# [1] = test system: NCI-H522 lung
# [2] = test system: HOP-92 NSCLC
# [3] = test system: MDA-MB-231 breast
# [4] = test system: SN12C renal
# [5] = test system: BT-549 breast
# [6] = test system: ACHN renal
# [7] = test system: NCI-H23 lung
# [8] = test system: HS 578T breast
# [9] = test system: PC-3 prostate
# [10] = test system: RPMI-8226 leukemia
# [11] = test system: LOX IMVI melanoma
# [12] = test system: NCI-H460 lung
# [13] = test system: MALME-3M melanoma
# [14] = test system: CAKI-1 renal
# [15] = test system: SNB-19 CNS
# [16] = test system: A498 renal
# [17] = test system: HT29 colon
# [18] = test system: T-47D breast
# [19] = test system: HOP-62 NSCLC
# [20] = test system: SW-620 colon
# [21] = test system: SNB-75 CNS
# [22] = test system: MDA-MB-435
# [23] = test system: M14 melanoma
# [24] = test system: IGROV1 ovarian
# [25] = test system: COLO 205 colon
# [26] = test system: MCF7 breast
# [27] = test system: SF-295 CNS
# [28] = test system: RXF 393 renal
# [29] = test system: KM12 colon
# [30] = test system: NCI-H226 lung
# [31] = test system: SF-268 CNS
# [32] = test system: NCI/ADR-RES ovarian
# [33] = test system: SK-MEL-5 melanoma
# [34] = test system: UACC-257 melanoma
# [35] = test system: HCT-116 colon
# [36] = test system: A549 NSCLC
# [37] = test system: UO-31 renal
# [38] = test system: SF-539 CNS
# [39] = test system: HCC-2998 colon
# [40] = test system: SK-MEL-28 melanoma
# [41] = test system: OVCAR-3 ovarian
# [42] = test system: OVCAR-5 ovarian
# [43] = test system: 786-0 renal
# [44] = test system: SK-OV-3 ovarian
# [45] = test system: SK-MEL-2 melanoma
# [46] = test system: SR leukemia
# [47] = test system: TK-10 renal
# [48] = test system: CCRF-CEM leukemia
# [49] = test system: UACC-62 melanoma
# [50] = test system: OVCAR-8 ovarian
# [51] = test system: DU-145 prostate
# [52] = test system: HCT-15 colon
# [53] = test system: HL-60(TB) leukemia
# [54] = test system: MOLT-4 leukemia
# [55] = test system: U251 CNS
# [56] = test system: K-562 leukemia
# [57] = test system: OVCAR-4 ovarian
# [58] = test system: EKVX NSCLC
structure (smiles),measurement,setting,value
Cc1ccc(C)c(NC2=C(Cl)C(=O)c3nc(C)ccc3C2=O)c1,GI50,[1],1920 nM
same,TGI,[1],4380 nM
same,GI50,[2],1840 nM
same,TGI,[2],3780 nM
same,GI50,[3],969 nM
same,TGI,[3],2820 nM
same,GI50,[4],1050 nM
same,TGI,[4],3150 nM
same,GI50,[5],1320 nM
same,TGI,[5],2660 nM
same,GI50,[6],1450 nM
same,TGI,[6],2910 nM
same,GI50,[7],1260 nM
same,TGI,[7],3920 nM
same,GI50,[8],2050 nM
same,TGI,[8],5760 nM
same,GI50,[9],1140 nM
same,TGI,[9],2920 nM
same,GI50,[10],708 nM
same,TGI,[10],3340 nM
same,GI50,[11],288 nM
same,TGI,[11],1590 nM
same,GI50,[12],1880 nM
same,TGI,[12],3950 nM
same,GI50,[13],2120 nM
same,TGI,[13],4170 nM
same,GI50,[14],1430 nM
same,TGI,[14],3030 nM
same,GI50,[15],1490 nM
same,TGI,[15],3420 nM
same,GI50,[16],2030 nM
same,TGI,[16],8140 nM
same,GI50,[17],3080 nM
same,TGI,[17],8770 nM
same,GI50,[18],1260 nM
same,TGI,[18],3720 nM
same,GI50,[19],1450 nM
same,TGI,[19],2990 nM
same,GI50,[20],1790 nM
same,TGI,[20],4270 nM
same,GI50,[21],1220 nM
same,TGI,[21],2640 nM
same,GI50,[22],1410 nM
same,TGI,[22],3270 nM
same,GI50,[23],1460 nM
same,TGI,[23],2900 nM
same,GI50,[24],1360 nM
same,TGI,[24],3300 nM
same,GI50,[25],2090 nM
same,TGI,[25],4490 nM
same,GI50,[26],917 nM
same,TGI,[26],3010 nM
same,GI50,[27],1750 nM
same,TGI,[27],3310 nM
same,GI50,[28],1220 nM
same,TGI,[28],2500 nM
same,GI50,[29],1540 nM
same,TGI,[29],3570 nM
same,GI50,[30],1670 nM
same,TGI,[30],4400 nM
same,GI50,[31],1420 nM
same,TGI,[31],3290 nM
same,GI50,[32],1330 nM
same,TGI,[32],5020 nM
same,GI50,[33],1500 nM
same,TGI,[33],2890 nM
same,GI50,[34],1420 nM
same,TGI,[34],2820 nM
same,GI50,[35],333 nM
same,TGI,[35],1510 nM
same,GI50,[36],2100 nM
same,TGI,[36],4750 nM
same,GI50,[37],1250 nM
same,TGI,[37],2640 nM
same,GI50,[38],1650 nM
same,TGI,[38],3120 nM
same,GI50,[39],1750 nM
same,TGI,[39],3250 nM
same,GI50,[40],1990 nM
same,TGI,[40],3700 nM
same,GI50,[41],292 nM
same,TGI,[41],1150 nM
same,GI50,[42],2410 nM
same,TGI,[42],4510 nM
same,GI50,[43],1790 nM
same,TGI,[43],3740 nM
same,GI50,[44],2740 nM
same,TGI,[44],14600 nM
same,GI50,[45],1930 nM
same,TGI,[45],3890 nM
same,GI50,[46],695 nM
same,TGI,[46],3230 nM
same,GI50,[47],2610 nM
same,TGI,[47],4240 nM
same,GI50,[48],1610 nM
same,TGI,[48],5800 nM
same,GI50,[49],1560 nM
same,TGI,[49],3260 nM
same,GI50,[50],1790 nM
same,TGI,[50],6010 nM
same,GI50,[51],1600 nM
same,TGI,[51],3080 nM
same,GI50,[52],848 nM
same,TGI,[52],2560 nM
same,GI50,[53],1160 nM
same,TGI,[53],3360 nM
same,GI50,[54],633 nM
same,TGI,[54],4090 nM
same,GI50,[55],1290 nM
same,TGI,[55],2780 nM
COc1ccc2c(c1)C=CC1(O2)Oc2ccc(OC)cc2C=C1C (stereo not given),GI50,[1],303 nM
same,TGI,[1],24100 nM
same,GI50,[2],189 nM
same,TGI,[2],930 nM
same,GI50,[3],1160 nM
same,TGI,[3],> 100000 nM
same,GI50,[4],800 nM
same,TGI,[4],> 55900 nM
same,GI50,[5],332 nM
same,TGI,[5],1690 nM
same,GI50,[6],673 nM
same,TGI,[6],> 54500 nM
same,GI50,[7],1370 nM
same,TGI,[7],> 100000 nM
same,GI50,[8],348 nM
same,TGI,[8],> 100000 nM
same,GI50,[9],461 nM
same,TGI,[9],> 41900 nM
same,GI50,[10],475 nM
same,TGI,[10],> 25400 nM
same,GI50,[11],647 nM
same,TGI,[11],8520 nM
same,GI50,[12],422 nM
same,TGI,[12],2050 nM
same,GI50,[13],33000 nM
same,TGI,[13],> 100000 nM
same,GI50,[14],632 nM
same,TGI,[14],> 100000 nM
same,GI50,[15],598 nM
same,TGI,[15],> 100000 nM
same,GI50,[16],251 nM
same,TGI,[16],1060 nM
same,GI50,[17],345 nM
same,TGI,[17],1620 nM
same,GI50,[18],2030 nM
same,TGI,[18],> 65200 nM
same,GI50,[19],615 nM
same,TGI,[19],> 59200 nM
same,GI50,[20],380 nM
same,TGI,[20],16700 nM
same,GI50,[21],273 nM
same,TGI,[21],> 100000 nM
same,GI50,[22],222 nM
same,TGI,[22],545 nM
same,GI50,[23],402 nM
same,GI50,[24],704 nM
same,TGI,[24],> 100000 nM
same,GI50,[26],652 nM
same,TGI,[26],> 100000 nM
same,GI50,[27],384 nM
same,TGI,[27],> 100000 nM
same,GI50,[28],432 nM
same,TGI,[28],17700 nM
same,GI50,[29],506 nM
same,TGI,[29],> 100000 nM
same,GI50,[30],4410 nM
same,TGI,[30],> 65600 nM
same,GI50,[31],1810 nM
same,TGI,[31],> 100000 nM
same,GI50,[32],397 nM
same,TGI,[32],> 100000 nM
same,GI50,[33],695 nM
same,TGI,[33],13500 nM
same,GI50,[56],358 nM
same,TGI,[56],> 100000 nM
same,GI50,[34],820 nM
same,TGI,[34],> 48900 nM
same,GI50,[57],28800 nM
same,TGI,[57],> 100000 nM
same,GI50,[35],509 nM
same,TGI,[35],> 24200 nM
same,GI50,[36],1000 nM
same,TGI,[36],> 100000 nM
same,GI50,[37],1310 nM
same,TGI,[37],> 46900 nM
same,GI50,[38],396 nM
same,TGI,[38],3020 nM
same,GI50,[39],1350 nM
same,TGI,[39],7360 nM
same,GI50,[40],4800 nM
same,TGI,[40],> 81900 nM
same,GI50,[42],1760 nM
same,TGI,[42],> 100000 nM
same,GI50,[43],742 nM
same,TGI,[43],> 36200 nM
same,GI50,[44],538 nM
same,TGI,[44],> 100000 nM
same,GI50,[58],1820 nM
same,TGI,[58],> 100000 nM
same,GI50,[45],392 nM
same,TGI,[45],54000 nM
same,GI50,[46],335 nM
same,TGI,[46],22700 nM
same,GI50,[47],7810 nM
same,TGI,[47],> 100000 nM
same,GI50,[48],366 nM
same,TGI,[48],4080 nM
same,GI50,[49],390 nM
same,TGI,[49],> 32900 nM
same,GI50,[50],944 nM
same,TGI,[50],4560 nM
same,GI50,[51],1130 nM
same,TGI,[51],> 100000 nM
same,GI50,[52],453 nM
same,TGI,[52],31400 nM
same,GI50,[53],288 nM
same,GI50,[54],447 nM
same,TGI,[54],> 71600 nM
same,GI50,[55],456 nM
same,TGI,[55],7860 nM
